{"source": "patent US20230225999A1", "about": "“A NUTRITIONAL COMPOSITION COMPRISING 3-HYDROXYBUTYRIC ACID TO IMPROVE THE GASTROINTESTINAL BARRIER” (priority 2020, published 2023)", "test_system": "co-culture cell-line model of intestinal epithelial cells containing Caco-2 and HT29-MTX cells", "assay": "Direct effect of 3-hydroxybutyric acid on inflammation-induced epithelial barrier dysfunction (FD4 translocation)", "type": "cell-based, human", "conditions": "10 μM apical, 36 hours pre-treatment, then TNF-α (2.5 ng/ml) and IFN-γ (10 ng/ml) for 48 hours", "description": "The human Caco-2 and HT29-MTX cell lines were obtained from the American Type Culture Collection (ATCC) and the European Collection of Authenticated Cell Cultures (ECACC), respectively. Caco-2 cell and HT29-MTX were maintained separately in culture flasks at 37° C. under humidified 10% CO2 atmosphere in Dulbecco's […] (DMEM) supplemented with GlutaMAX (Invitrogen), 1% […], 100 μg/ml streptomycin, 100 UI/ml penicillin and heat inactivated fetal bovine serum (FBS; 15% for Caco-2 and 10% for HT29-MTX). To make co-culture for epithelial barrier studies, each cell lines were expanded in their respective flasks until 90% confluent monolayers were reached. Cell lines are then trypsinized with 1× trypsin. Co-culture of Caco-2 and HT29-MTX were seeded at 6×10^4/cm^2 on 1.12 cm^2 Transwell Polycarbonate semi-permeable membranes (0.4 μm) and grown in DMEM supplemented with GlutaMAX, 1% minimum essential media, 100 μg/ml streptomycin, 100 UI/ml penicillin and 10% heat inactivated FBS for 21 days. […] At the end of the experiment, translocation of the FITC-labeled dextran (4000 Da) from the apical to basolateral compartment was quantified within a 2-hour period. FD4 translocation data were analysed by using the two-sided two-sample Student t-test assuming unequal variances.", "data": [{"smiles": "CC(O)CC(=O)O", "note": "(stereo not shown) [3-hydroxybutyric acid]", "values": [{"measurement": "Epithelial barrier intactness: translocation of FITC-labeled dextran (FD4) from apical to basolateral compartment relative to control +ve (FIG. 6)", "result": "protect the barrier against inflammation-induced epithelial barrier hyperpermeability"}]}]}
